Assay results from patent US20180284123A1, “BARCODED RAPID ASSAY PLATFORM USEFUL FOR EFFICIENT ANALYSIS OF CANDIDATE MOLECULES AND METHODS OF MAKING AND USING THE PLATFORM” (California Institute of Technology, priority 2017, published 2018).

How the values were obtained:
[1] = molecular target: T1, KRAS (Homo sapiens, UniProt P01116); test: B-RAP surface immunofluorescent assay, PCC ligand KRas EC50; assay type: binding; details: for Avg F635, Full Centroid / Avg F635, Full Lane / avg F635, Left Part Centroid / avg F635, Middle Part Centroid / avg F635, Right Part Centroid: 10 μM KRas well of plate #1, pixel by pixel; for avg F635, Left Part Centroid: left part of centroid; for avg F635, Middle Part Centroid: middle part of centroid; for avg F635, Right Part Centroid: right part of centroid; for EC50: 13-point KRas concentration series, each point in decaplicate, Hill coefficient=1
T1 construct: His6-tagged human KRas Isoform 4B (residues 1-169); His6; made in house; host or cells: E. coli BL21(DE3), PQE80 vector
Procedure: The barcode patterned microchip surface was partitioned into 16 individual microwells using a pre-fabricated PDMS slab. Individual biotinylated PCC candidates were complexed to specific SAC-DNA conjugates, combined into a cocktail, and then self-assembled, via DNA hybridization, onto designated barcode stripes (FIGS. 2-4). Incubation with a specific concentration of the target protein preceded incubation with a primary capture antibody and then a fluorophore-conjugated secondary detection antibody. During assay execution, each well represents a different target concentration or assay condition. Once developed, the fluorescence of the barcodes is digitized using a GenePix 4400A array scanner, with an excitation laser power optimized to a power level of 40% (60 W), which maximizes detection sensitivity while also minimizing signal saturation. Data extraction occurs using 10 μm radius circles, taken along the length of a barcode stripe. A fluorescence signal representing the average of all the pixels within a given circle is collected. A total of ten circles (data-blocks) are measured along a 180 μm span of the middle portion for each individual barcode lane in a given well. 10 μM KRas protein gave an average F635 of 47,868.7, with a standard deviation of 4154.53. 1 μM KRas protein gave an average F635 of 11437.6, with a standard deviation of 1602.202. 100 nM KRas protein gave an average F635 of 1780.6, with a standard deviation of 236.38. This illustrates the intensity across a stripe compared to the intensity from the data-block extraction. After extraction the data is background corrected. The background signal arises from (a) non-specific binding of the primary and secondary antibodies (independent of [KRas]), but can vary across different barcode stripes), and (b) non-specific binding of KRas protein ([KRas] dependent). Background (a) was assessed by measuring the average signal in the null protein well for each stripe. Background (b) was assessed by measuring the average fluorescence for the dummy ligand (Biotin* probe) that was in each well. The background subtracted data was then graphed in Graphpad Prism 7 and fitted to a sigmoidal curve (Hill coefficient=1).
Measurement of PCC Ligand KRas EC50 with the Barcode Rapid Assay Platform
Protein Incubation Buffer: Tris-buffered saline (TBS)+0.05% Tween20 (TBST)
A pre-fabricated PDMS template was aligned onto the DNA barcode microchip, and the microchip was taped into a 10 cm petri dish. The wells on the platform were wet with 50 μL PBST before filling with blocking buffer and placing into a 37° C. incubator for 1 hr. Concurrently, 40 μL 1% BSA in PBS solutions containing 750 nM of a SAC-DNA conjugate and 3.75 μM of one biotinylated PCC ligand or biotin-A20-Cy3 blank were prepared for each SAC-DNA conjugate. The biotinylated ligands were allowed to complex with the SAC protein for one hour before pooling the SAC-DNA-ligand solutions (final [SAC-DNA-ligand conjugates]=50 nM). The blocking buffer was aspirated and each well was loaded with the SAC-DNA-ligand conjugates cocktail for hybridization with the DNA barcode at 37° C. for one hour. The wells were washed with PBST (3×) before loading serially diluted solutions of KRas protein in protein buffer (0 to 400 μM). After shaking at RT for one hour, the wells were rinsed with PBST (5×), making sure to pipet up/down with the first addition of PB ST. A (100:1) dilution of CST rabbit anti-Ras Ab (#39655) in 1° ab buffer was added to each well before shaking at RT for one hour. After rinsing the wells with PBST (3×), the wells were loaded with a (200:1) dilution of Abcam goat anti-rabbit-Alexafluor 647 linked ab (ab150079) in 2° ab buffer before shaking at RT for one hour. A final rinse of the wells with PBST (3×) proceeded peeling off the PDMS slab from the barcode microchip and dipping the barcode into the following solutions: PBS, (1:1) PBS: MQ H2O, MQ H2O (2×). […]

[2] = molecular target: T1, KRAS; test: GTPase Glo assay of intrinsic KRas GTPase activity; assay type: biochemical; details: survey assays, 10 μM KRas, two hour incubation
Procedure: The intrinsic GTPase activity of WT KRas protein was measured using the GTPase-Glo Assay Kit (#V7681) from Promega Corporation (Madison, Wis.) on opaque white 96-well plates (#6005290) from Perkin Elmer Life Sciences (Waltham, Mass.). Luminescence was recorded on the Flexstation 3 plate reader used for multi-well ELISAs.
KRas inhibition assays were carried out using a GTPase Glo Assay kit from Promega. Each candidate inhibitor PCC was initially tested by combining a concentration series of the ligand with 10 μM KRas protein in an opaque white 96-well plate and incubated with 5 μM 5′-guanosine triphosphate (GTP) for two hours. The remaining GTP was […]. Chemiluminescence was measured using a Flexstation 3 plate reader (All wavelengths mode, 500 ms integration), and plotted using Graphpad Prism 7. […] All measurements were done in triplicate.
The GTPase assays were run in triplicate on a multi-well plate using the GTPase Glo Assay kit from Promega with 10 μM KRas protein and varying concentrations of ligand (1 μM to 100 μM L1a, L8 and 2.5 μM to 250 μM L2). All reagents were warmed to RT before use. A single opaque white 96-well plate was charged with 12.5 μL GTPase/GAP buffer (GTPase buffer w/ 1 mM DTT), 10 μM KRas in GTPase/GAP buffer, or 10 μM KRas protein with either L1a, L2, or L8. Running the survey assays on the same plate allowed for direct comparison of the curves, but it necessitated the use of the first row/column on the multi-well plate which introduced some noise to the low ligand concentration points. A 12.5 μL aliquot of a 2×GTP solution (10 μM rGTP in GTPase Buffer) was then added to each well before allowing the plate to shake at RT for two hours (initial GTPase inhibition assay). The GTPase Glo reagent was reconstituted in the GTPase Glo Buffer (4 μL GTPase Glo (500×) reagent, 1996 μL GTPase Glo Buffer, 1 μL 10 mM ADP) immediately before adding 25 μL to each well. Shaking at RT for thirty minutes preceded the addition of 50 μL of the Detection reagent to each well. The plate was covered and incubated for a total of ten minutes before reading the luminescence with a Flexstation 3 plate reader (All wavelengths mode, 500 ms integration time), graphed using Graphpad Prism 7 (Sigmoidal 4PL mode), and an IC50 value was calculated.
For the full GTPase inhibition curve for L2, the above procedure was followed with the change that the incubation with KRas occurred over or four hours rather than two.
Consequently, the best three ligand fractions L1a, L2, and L8 were probed in a functional, solution phase assay for their ability to disrupt the intrinsic GTPase enzymatic activity of KRas protein. This assay measures the enzymatic conversion of GTP to GDP by KRas—a process that can potentially be inhibited. After incubation, an added GTPase Glo™ reagent converts the remaining GTP to ATP, and the ATP is converted into a chemiluminescent signal. Thus, higher chemiluminescence translates to lower KRas enzymatic activity. For the measurements, a fixed [KRas protein] is incubated with varying ligand concentrations. A concentration of 10 μM KRas protein was selected after generating a standard curve for the intrinsic KRas GTPase activity. KRas is a slow acting enzyme, so a KRas/PCC incubation time of two hours was used for the initial survey scans, while four hour incubation times were used for the higher resolution data. […] Thus, the modulation of KRas activity by L2 was recorded with an expanded concentration range.

[3] = molecular target: T1, KRAS; test: Barcoded rapid assay microchip binding curves of FIG. 6A/6B; details: fitted curves of FIG. 6B, Hill coefficient set to 1, triplicate
Procedure: FIG. 6A is a picture of a barcoded rapid assay microchip (60) following its use for binding curve assays of KRAS to candidate ligands. […] EC50 binding curves of 15 candidate ligands were simultaneously generated against the target protein KRAS. Each microwell (ovals) represents a distinct concentration of KRAS that was added (values are given above each well). All 15 candidate ligands were measured in triplicate in each microwell.
FIG. 6B is a graph of the EC50 binding curves generated from the barcoded rapid assay microchip of FIG. 6A. Images of the barcoded rapid assay microchip were digitized using a fluorescence image scanner and plotted as binding curves (61) for each of the candidate ligands. All binding curves were fitted to Hill functions, with the Hill coefficient set to 1.
A series of peptide ligands that were identified as candidate binders to the protein KRas, using known literature methods, were prepared according to the methods of FIG. 3, and assembled into the individual microwells of the barcoded rapid assay microchip as illustrated in FIG. 4. […] Fluorescence imaging of the individual wells was then used to generate a fluorescence intensity, vs KRAS concentration, for each of the individual candidate ligands. […]

[4] = molecular target: T1, KRAS; test: Multi-well ELISA, PCC ligand KRas EC50; assay type: binding; details: triplicate, KRas 0→300 μM, Hill coefficient=1
Procedure: Measurement of PCC Ligand KRas EC50 Using the Multi-Well ELISA Technology
A 96-well Pierce Neutravidin Plate was washed with binding buffer (3×5 minutes at RT) before loading plate with a 1 μM solution of either blank (biotin-PEG5-NHAc) (singly) or biotinylated PCC ligand (in triplicate). The plate incubated for two hours before washing with binding buffer (3×5 minutes). Blocking buffer was added to each well and the plate blocked for one hour before undergoing washing with binding buffer (3×5 minutes). Each well was loaded with either binding buffer or KRas solution (0→300 μM), and the plate was incubated for 30 minutes. Plate washing with binding buffer (3×5 minutes) preceded incubating the plate with a (1000:1) dilution of 1° antibody (ab) rabbit anti-Ras (CST #3965) in ab buffer for thirty minutes. The plate was washed with binding buffer (3×5 minutes), loaded with a (2000:1) dilution of 2° ab goat anti-rabbit, HRP-linked ab (CST #7074) in ab buffer, and incubated for an additional thirty minutes. […] After quenching the enzymatic reaction with 1M H2SO4(aq) (100 μL) the plate was read at λ=450 nm within ten minutes. The data was double background corrected using the ab only absorbance and the dummy ligand absorbance, plotted using Prism GraphPad 7 (Sigmoidal 4PL mode with the Hill coefficient set=1), and an EC50 value was calculated.

T1 sequence (P01116 1-169 isoform P01116-2): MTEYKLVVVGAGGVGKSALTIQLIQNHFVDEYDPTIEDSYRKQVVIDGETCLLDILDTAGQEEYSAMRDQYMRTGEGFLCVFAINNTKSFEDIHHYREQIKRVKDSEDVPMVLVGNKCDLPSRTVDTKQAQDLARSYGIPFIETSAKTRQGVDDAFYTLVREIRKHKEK

Avg F635, Full Centroid [1]	Avg F635, Full Lane [1]	avg F635, Left Part Centroid [1]	avg F635, Middle Part Centroid [1]	avg F635, Right Part Centroid [1]	effect on the KRas protein's GTPase activity [2]	EC50 [3]	EC50 [1]	EC50 [4]	Structure (SMILES)
20134	18768	17838	20725	21906	inhibitory effect	–	–	–	CCC(C)[C@@H]1NC(=O)CNC(=O)[C@H](Cc2cnc[nH]2)NC(=O)[C@@H](N)Cc2cn(nn2)CCCC[C@@H](C(=O)NCCOCCOCCOCCOCCOCCC(=O)NCCNC(=O)CCCC[C@@H]2SC[C@@H]3NC(=O)N[C@@H]32)NC(=O)CNC(=O)[C@H](C(C)C)NC1=O (single isomer, unassigned) [Ligand L1a, HGIVG]
18391	16612	14966	20262	20045	–	6.55 µM	5.43 ± 1 µM	2.18 ± 2.7 µM	NC(=O)CC[C@@H]1NC(=O)[C@@H](N)Cc2cn(nn2)CCCC[C@@H](C(=O)NCCOCCOCCOCCOCCOCCC(=O)NCCNC(=O)CCCC[C@@H]2SC[C@@H]3NC(=O)N[C@@H]32)NC(=O)[C@H](Cc2ccc(O)cc2)NC(=O)[C@H](Cc2ccccc2)NC(=O)[C@H](CC(N)=O)NC(=O)[C@H](CC(=O)O)NC1=O (single isomer, unassigned) [Ligand L9a, QDNFY]
45500	41812	39380	47791	49508	–	6.29 µM	3.86 ± 0.57 µM	3 ± 4.9 µM	NC(=O)CC[C@@H]1NC(=O)[C@@H](N)Cc2cn(nn2)CCCC[C@@H](C(=O)NCCOCCOCCOCCOCCOCCC(=O)NCCNC(=O)CCCC[C@@H]2SC[C@@H]3NC(=O)N[C@@H]32)NC(=O)[C@H](Cc2ccc(O)cc2)NC(=O)[C@H](Cc2ccccc2)NC(=O)[C@H](CC(N)=O)NC(=O)[C@H](CC(=O)O)NC1=O (single isomer, unassigned) [Ligand L9b, QDNFY]
